Results from publication PMC7356761 (Molecules, 2020).

What was measured:
[1] = tested on: H441 cells (wild-type EGFR); experiment: Cell viability assay (WST-8), H441; conditions: WST-8, 48 h
[2] = tested on: H3255 cells (EGFR L858R); experiment: Cell viability assay (WST-8), H3255; format: cell-based; conditions: Homo sapiens, NCI-H3255, WST-8, 48 h
[3] = tested on: H1975 cells (EGFR L858R/T790M); parameters: method as in PMID 27827863; conditions: previous study ref 25; cited from earlier work
[4] = target: wild-type EGFR-TK (Homo sapiens, UniProt P00533); experiment: EGFR-TK inhibition assay (ADP-Glo), wild-type; format: biochemical; conditions: EGFR tyrosine kinase wild-type; read-out: IC50 Value, Wild-Type (WT)
[5] = target: EGFR-TK with L858R/T790M mutation (Homo sapiens, UniProt P00533, L858R/T790M); experiment: EGFR-TK inhibition assay (ADP-Glo), L858R/T790M; format: biochemical

| SMILES | IC50 [1] [µM] | IC50 [2] [µM] | IC50 [3] [µM] | IC50 [4] [µM] | IC50 ([5]; EGFR tyrosine kinase L858R/T790M) [µM] | SI (WT: L858R/T790M) ([5]; selectivity index, wild-type IC50 to L858R/T790M IC50) |
| --- | --- | --- | --- | --- | --- | --- |
| C=CC(=O)Nc1cccc(Nc2nc(Nc3ccc(N4CCN(C(C)=O)CC4)cc3OC)ncc2C(F)(F)F)c1 [CO-1686, Rociletinib, reference compound] | 0.26 ± 0.04 | 0.15 ± 0.02 | 0.137 |  |  |  |
| C=CC(=O)Nc1cc(I)cc(Nc2nc(Nc3ccc(N4CCN(C(C)=O)CC4)cc3OC)ncc2C(F)(F)F)c1 [compound 10, N-(3-{[2-({4-[4-acetylpiperazin-1-yl]-2-methoxyphenyl}amino)-5-(trifluoromethyl)pyrimidin-4-yl]amino}-5-iodophenyl)acrylamide] | 1.84 ± 0.44 | 0.5 ± 0.21 |  | > 10 | 0.31 ± 0.15 | >32 |
